In patent publication US20060035314A1, “Receptors and signalling proteins capable of binding meiotic acting sterols (MAS)” (priority 2000, published 2006):

Test system: Mouse Oocytes
Test: Microinjection of antisense/sense oligonucleotides into mouse oocytes; FF-MAS-triggered resumption of meiosis (GVBD)
Format: cell-based
Settings: 10 μM FF-MAS (24 hours); added 20 hours after injection of approx. 12 pg of each oligonucleotide; hypoxanthine containing medium
Excerpt: Two antisense oligonucleotides (20 nucleotides) were utilized for microinjection: 5′-[…]-3′ and 5′-[…]-3′, complementary to the kozak sequence of the mRNA encoded by the cDNA sequence herein designated SAM1a and SAM1b, respectively, both of which are defined in SEQ ID NO: 1 and SEQ ID NO: 3, respectively, shown below. In control experiments, the corresponding sense oligonucleotides were microinjected: 5′-[…]-3′ and 5′-[…]-3′ for mRNA SAM1a and SAM1b, respectively. SAM1a antisense was co-injected with SAM1b antisense from a stock solution containing 1.25 μg/μl of each nucleotide in 10% human serum albumin (hereinafter designated HSA) plus 5 mM Tris (pH value: 7.5). SAM1a sense was co-injected with SAM1b sense from a stock solution containing 1.25 μg/μl of each nucleotide in 10% HSA plus 5 mM Tris (pH value: 7.5). Approximately 12 pg of each oligonucleotide ([…]) were injected into the cytoplasma of individual germinal vesicle (GV)-stage oocytes loaded in a droplet of alpha-MEM supplemented with 0.8% HSA and 3 mM hypoxantine under mineral oil in a 35 mm petri dish on the stage of an inverted microscope. […] The effect of FF-MAS was evaluated after 24 hours of further incubation as the number of oocytes in germinal vesicle breakdown (hereinafter designated GVBD). […]

## CC(C)=CCC[C@@H](C)[C@H]1CC=C2C3=C(CC[C@@]21C)[C@@]1(C)CC[C@H](O)C(C)(C)[C@@H]1CC3 [FF-MAS, 4,4-dimethyl-5α-cholesta-8,14,24-triene-3β-ol]
  GVBD/GVBD + GV: 26/29
